Measured values as given in ChEMBL document CHEMBL4507276 (2021).

Columns and labels:
[1] = biological target: Macrophage colony-stimulating factor 1 receptor (Homo sapiens) (UniProt P07333); conditions: Compound concentration 1000.0 nM
[2] = biological target: Serine/threonine-protein kinase PLK2 (Homo sapiens) (UniProt Q9NYY3); conditions: Compound concentration 1000.0 nM
[3] = biological target: Cyclin-dependent kinase 4 (Homo sapiens) (UniProt P11802); conditions: Compound concentration 1000.0 nM
[4] = biological target: Phosphatidylinositol 4-phosphate 3-kinase C2 domain-containing subunit beta (Homo sapiens) (UniProt O00750); conditions: Compound concentration 1000.0 nM
[5] = system: Mast/stem cell growth factor receptor Kit (Homo sapiens), P10721 [A829P]; conditions: Compound concentration 1000.0 nM
[6] = biological target: Serine/threonine-protein kinase Nek6 (Homo sapiens) (UniProt Q9HC98); conditions: Compound concentration 1000.0 nM
[7] = biological target: T1, Rhodopsin kinase GRK7 (Homo sapiens) (UniProt Q8WTQ7); conditions: Compound concentration 1000.0 nM
T1 sequence (whole entry): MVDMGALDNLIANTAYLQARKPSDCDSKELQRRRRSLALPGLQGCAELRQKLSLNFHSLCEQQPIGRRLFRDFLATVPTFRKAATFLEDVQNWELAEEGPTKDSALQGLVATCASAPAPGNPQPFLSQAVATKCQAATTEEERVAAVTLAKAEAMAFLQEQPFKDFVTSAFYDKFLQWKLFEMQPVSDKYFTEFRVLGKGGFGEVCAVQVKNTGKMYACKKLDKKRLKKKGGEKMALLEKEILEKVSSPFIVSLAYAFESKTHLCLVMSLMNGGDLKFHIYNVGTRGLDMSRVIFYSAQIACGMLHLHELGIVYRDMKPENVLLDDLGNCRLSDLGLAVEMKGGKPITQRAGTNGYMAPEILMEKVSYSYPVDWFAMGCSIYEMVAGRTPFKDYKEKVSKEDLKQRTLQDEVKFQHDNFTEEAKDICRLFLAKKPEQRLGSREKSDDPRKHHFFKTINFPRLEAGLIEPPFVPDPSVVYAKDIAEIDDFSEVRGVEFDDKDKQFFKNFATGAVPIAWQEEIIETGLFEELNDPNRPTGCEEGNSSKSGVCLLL

[8] = biological target: Casein kinase I isoform gamma-1 (Homo sapiens) (UniProt Q9HCP0); conditions: Compound concentration 1000.0 nM
[9] = biological target: Serine/threonine-protein kinase 32B (Homo sapiens) (UniProt Q9NY57); conditions: Compound concentration 1000.0 nM
[10] = biological target: T2, Alpha-2A adrenergic receptor (Homo sapiens) (UniProt P08913); conditions: Compound concentration 10.0 uM
T2 sequence (whole entry): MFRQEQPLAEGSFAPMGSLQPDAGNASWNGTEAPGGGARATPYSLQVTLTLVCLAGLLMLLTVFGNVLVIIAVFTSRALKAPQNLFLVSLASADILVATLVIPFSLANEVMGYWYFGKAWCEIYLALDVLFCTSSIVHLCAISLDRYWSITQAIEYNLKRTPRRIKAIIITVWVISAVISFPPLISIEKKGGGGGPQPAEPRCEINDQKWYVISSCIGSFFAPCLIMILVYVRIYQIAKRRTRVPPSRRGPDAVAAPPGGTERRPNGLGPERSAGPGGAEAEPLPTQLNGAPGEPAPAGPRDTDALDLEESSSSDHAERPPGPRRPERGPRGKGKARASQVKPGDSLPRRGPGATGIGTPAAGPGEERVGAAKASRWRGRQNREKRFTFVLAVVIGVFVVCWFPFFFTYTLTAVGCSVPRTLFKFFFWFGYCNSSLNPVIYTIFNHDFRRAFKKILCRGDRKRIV

[11] = biological target: T3, Ephrin type-B receptor 3 (Homo sapiens) (UniProt P54753); conditions: Compound concentration 1000.0 nM
T3 sequence (whole entry): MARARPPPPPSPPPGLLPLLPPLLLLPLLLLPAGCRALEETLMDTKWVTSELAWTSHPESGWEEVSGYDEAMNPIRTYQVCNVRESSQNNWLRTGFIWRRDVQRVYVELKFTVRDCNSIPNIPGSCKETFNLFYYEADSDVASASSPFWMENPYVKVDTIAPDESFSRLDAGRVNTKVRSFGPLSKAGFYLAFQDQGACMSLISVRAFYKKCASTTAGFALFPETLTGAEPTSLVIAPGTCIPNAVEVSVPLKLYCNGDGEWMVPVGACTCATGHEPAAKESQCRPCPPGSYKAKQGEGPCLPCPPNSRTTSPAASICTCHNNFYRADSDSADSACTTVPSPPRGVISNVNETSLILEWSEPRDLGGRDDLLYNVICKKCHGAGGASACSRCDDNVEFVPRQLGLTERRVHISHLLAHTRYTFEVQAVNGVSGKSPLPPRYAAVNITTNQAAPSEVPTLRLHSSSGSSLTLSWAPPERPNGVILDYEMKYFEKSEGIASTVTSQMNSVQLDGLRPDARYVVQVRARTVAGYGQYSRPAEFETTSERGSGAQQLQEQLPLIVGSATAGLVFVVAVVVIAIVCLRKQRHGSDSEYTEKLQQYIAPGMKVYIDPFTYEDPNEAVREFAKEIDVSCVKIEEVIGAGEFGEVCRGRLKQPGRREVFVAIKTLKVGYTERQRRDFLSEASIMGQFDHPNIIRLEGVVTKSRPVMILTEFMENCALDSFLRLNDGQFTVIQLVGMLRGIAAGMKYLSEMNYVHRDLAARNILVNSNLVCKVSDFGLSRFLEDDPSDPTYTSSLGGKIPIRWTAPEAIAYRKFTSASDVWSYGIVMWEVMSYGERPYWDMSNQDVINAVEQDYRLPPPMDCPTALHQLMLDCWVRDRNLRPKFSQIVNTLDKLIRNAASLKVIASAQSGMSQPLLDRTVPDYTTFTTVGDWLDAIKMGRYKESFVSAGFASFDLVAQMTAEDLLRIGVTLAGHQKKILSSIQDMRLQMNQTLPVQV

[12] = biological target: Serine/threonine-protein kinase/endoribonuclease IRE1 (Homo sapiens) (UniProt O75460); conditions: Compound concentration 1000.0 nM
[13] = system: Epidermal growth factor receptor (Homo sapiens), P00533 [G719S]; conditions: Compound concentration 1000.0 nM
[14] = biological target: Maternal embryonic leucine zipper kinase (Homo sapiens) (UniProt Q14680); conditions: Compound concentration 1000.0 nM
[15] = biological target: Ephrin type-B receptor 6 (Homo sapiens) (UniProt O15197); conditions: Compound concentration 1000.0 nM
[16] = system: Phosphatidylinositol 4,5-bisphosphate 3-kinase catalytic subunit alpha isoform (Homo sapiens), P42336 [H1047L]; conditions: Compound concentration 1000.0 nM
[17] = biological target: Beta-2 adrenergic receptor (Homo sapiens) (UniProt P07550); conditions: Compound concentration 10.0 uM
Chain of Beta-2 adrenergic receptor (Homo sapiens) (P07550 whole entry, looked up): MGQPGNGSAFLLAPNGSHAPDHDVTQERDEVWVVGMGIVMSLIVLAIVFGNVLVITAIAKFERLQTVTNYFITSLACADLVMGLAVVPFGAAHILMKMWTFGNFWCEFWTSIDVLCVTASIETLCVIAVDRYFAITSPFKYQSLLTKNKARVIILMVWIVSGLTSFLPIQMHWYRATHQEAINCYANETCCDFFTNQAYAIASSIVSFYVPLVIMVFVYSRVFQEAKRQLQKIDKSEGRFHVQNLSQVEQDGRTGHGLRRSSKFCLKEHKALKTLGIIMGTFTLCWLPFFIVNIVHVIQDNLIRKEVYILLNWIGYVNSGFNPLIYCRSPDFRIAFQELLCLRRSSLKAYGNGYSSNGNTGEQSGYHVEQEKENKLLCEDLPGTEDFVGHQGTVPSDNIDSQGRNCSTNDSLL

Chain of Phosphatidylinositol 4,5-bisphosphate 3-kinase catalytic subunit alpha isoform (Homo sapiens), P42336 [H1047L] (P42336 whole entry H1047L, canonical isoform): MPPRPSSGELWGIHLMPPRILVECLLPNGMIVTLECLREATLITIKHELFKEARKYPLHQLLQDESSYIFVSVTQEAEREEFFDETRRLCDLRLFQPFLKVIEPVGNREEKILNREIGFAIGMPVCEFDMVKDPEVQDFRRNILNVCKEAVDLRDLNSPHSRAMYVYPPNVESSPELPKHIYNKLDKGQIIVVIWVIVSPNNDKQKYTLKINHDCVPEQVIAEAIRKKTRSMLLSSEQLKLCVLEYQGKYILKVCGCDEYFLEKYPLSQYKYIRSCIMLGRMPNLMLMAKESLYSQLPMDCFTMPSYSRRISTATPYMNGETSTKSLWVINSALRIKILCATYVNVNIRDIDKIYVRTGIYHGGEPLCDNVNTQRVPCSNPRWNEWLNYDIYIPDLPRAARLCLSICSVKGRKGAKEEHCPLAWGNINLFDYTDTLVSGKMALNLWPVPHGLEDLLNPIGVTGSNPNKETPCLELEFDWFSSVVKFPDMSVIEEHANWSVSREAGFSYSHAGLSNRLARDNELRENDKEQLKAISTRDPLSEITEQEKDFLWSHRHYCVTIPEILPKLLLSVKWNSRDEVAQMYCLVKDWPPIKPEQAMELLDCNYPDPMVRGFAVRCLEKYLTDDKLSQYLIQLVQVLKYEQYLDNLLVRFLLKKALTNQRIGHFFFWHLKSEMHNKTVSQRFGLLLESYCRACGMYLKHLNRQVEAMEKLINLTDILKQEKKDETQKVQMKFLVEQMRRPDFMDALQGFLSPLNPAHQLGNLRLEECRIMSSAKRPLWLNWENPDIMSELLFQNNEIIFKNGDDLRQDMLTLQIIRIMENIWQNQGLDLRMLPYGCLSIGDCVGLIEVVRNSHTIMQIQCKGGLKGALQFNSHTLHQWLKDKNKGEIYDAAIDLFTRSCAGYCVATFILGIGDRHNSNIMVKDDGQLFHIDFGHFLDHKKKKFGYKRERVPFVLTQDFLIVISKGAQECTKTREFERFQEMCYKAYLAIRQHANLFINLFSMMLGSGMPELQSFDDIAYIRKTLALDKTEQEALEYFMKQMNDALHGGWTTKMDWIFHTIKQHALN
Chain of Macrophage colony-stimulating factor 1 receptor (Homo sapiens) (P07333 whole entry): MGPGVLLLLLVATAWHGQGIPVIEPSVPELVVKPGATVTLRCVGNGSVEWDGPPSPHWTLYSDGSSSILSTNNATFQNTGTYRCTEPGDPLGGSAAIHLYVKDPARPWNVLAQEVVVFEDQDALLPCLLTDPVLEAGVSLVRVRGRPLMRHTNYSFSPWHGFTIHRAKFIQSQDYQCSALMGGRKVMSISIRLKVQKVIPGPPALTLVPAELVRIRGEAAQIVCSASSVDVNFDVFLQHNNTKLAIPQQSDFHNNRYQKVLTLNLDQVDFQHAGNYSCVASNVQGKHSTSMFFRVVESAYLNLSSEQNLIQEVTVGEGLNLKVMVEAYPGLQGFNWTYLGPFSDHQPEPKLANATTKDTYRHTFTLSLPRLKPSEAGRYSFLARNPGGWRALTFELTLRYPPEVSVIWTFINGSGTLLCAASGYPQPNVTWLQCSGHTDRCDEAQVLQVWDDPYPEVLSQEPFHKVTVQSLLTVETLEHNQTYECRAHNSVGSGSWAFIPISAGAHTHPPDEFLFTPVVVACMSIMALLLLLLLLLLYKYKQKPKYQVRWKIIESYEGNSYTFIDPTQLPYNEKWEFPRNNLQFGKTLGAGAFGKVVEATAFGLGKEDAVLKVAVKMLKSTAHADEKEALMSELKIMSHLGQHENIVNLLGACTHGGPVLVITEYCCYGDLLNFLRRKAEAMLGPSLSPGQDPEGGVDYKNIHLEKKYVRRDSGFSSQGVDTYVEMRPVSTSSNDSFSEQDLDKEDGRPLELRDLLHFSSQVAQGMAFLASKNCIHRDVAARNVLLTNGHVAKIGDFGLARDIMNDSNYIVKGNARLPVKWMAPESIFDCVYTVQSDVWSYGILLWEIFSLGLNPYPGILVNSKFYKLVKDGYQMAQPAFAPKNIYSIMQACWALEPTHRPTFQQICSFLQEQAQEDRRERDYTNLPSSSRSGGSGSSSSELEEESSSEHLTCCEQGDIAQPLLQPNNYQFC
Chain of Serine/threonine-protein kinase 32B (Homo sapiens) (Q9NY57 whole entry): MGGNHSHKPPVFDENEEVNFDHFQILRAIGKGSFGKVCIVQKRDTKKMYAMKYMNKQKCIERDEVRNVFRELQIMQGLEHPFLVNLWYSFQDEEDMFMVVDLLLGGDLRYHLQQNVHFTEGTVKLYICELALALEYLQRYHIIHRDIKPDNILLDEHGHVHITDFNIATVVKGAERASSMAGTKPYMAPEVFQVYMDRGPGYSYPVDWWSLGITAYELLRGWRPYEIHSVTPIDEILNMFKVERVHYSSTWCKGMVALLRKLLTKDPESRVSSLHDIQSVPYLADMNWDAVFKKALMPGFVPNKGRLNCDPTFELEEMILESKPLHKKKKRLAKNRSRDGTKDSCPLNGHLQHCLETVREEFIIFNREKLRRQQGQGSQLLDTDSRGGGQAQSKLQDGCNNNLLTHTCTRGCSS
Chain of Mast/stem cell growth factor receptor Kit (Homo sapiens), P10721 [A829P] (P10721 whole entry A829P): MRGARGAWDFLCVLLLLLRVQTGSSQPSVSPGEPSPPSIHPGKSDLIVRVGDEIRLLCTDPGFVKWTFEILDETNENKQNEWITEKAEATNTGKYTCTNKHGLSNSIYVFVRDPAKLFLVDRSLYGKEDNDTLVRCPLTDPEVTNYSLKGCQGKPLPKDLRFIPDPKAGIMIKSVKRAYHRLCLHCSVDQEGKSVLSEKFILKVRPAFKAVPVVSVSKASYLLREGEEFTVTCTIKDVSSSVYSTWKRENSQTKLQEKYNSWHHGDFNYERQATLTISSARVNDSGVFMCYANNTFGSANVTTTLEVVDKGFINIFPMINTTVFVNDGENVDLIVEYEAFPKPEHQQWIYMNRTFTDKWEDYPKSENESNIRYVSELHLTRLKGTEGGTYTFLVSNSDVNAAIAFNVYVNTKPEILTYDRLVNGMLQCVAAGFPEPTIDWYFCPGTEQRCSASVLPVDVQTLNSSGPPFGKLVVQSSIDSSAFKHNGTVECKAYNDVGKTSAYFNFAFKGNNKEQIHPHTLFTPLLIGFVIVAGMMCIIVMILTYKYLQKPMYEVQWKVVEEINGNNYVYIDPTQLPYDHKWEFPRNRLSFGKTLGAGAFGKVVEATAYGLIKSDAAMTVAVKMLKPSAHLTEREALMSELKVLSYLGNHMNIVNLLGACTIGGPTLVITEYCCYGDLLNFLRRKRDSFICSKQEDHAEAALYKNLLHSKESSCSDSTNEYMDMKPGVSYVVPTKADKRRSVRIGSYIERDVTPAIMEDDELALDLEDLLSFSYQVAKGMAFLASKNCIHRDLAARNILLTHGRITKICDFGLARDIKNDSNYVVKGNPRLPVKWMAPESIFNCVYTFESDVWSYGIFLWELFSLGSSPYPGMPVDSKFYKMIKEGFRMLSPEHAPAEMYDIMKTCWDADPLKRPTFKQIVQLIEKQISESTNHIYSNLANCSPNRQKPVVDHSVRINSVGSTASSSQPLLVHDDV
Chain of Serine/threonine-protein kinase Nek6 (Homo sapiens) (Q9HC98 whole entry): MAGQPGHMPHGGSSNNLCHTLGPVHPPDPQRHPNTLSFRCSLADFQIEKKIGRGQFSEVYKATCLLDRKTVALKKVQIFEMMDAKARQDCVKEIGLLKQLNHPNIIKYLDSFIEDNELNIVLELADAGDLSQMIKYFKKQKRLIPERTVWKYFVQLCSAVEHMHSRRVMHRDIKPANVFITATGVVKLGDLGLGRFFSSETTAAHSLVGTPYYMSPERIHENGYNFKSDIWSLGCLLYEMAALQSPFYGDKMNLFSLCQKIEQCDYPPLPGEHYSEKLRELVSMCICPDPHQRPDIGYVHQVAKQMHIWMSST
Chain of Serine/threonine-protein kinase PLK2 (Homo sapiens) (Q9NYY3 whole entry, looked up): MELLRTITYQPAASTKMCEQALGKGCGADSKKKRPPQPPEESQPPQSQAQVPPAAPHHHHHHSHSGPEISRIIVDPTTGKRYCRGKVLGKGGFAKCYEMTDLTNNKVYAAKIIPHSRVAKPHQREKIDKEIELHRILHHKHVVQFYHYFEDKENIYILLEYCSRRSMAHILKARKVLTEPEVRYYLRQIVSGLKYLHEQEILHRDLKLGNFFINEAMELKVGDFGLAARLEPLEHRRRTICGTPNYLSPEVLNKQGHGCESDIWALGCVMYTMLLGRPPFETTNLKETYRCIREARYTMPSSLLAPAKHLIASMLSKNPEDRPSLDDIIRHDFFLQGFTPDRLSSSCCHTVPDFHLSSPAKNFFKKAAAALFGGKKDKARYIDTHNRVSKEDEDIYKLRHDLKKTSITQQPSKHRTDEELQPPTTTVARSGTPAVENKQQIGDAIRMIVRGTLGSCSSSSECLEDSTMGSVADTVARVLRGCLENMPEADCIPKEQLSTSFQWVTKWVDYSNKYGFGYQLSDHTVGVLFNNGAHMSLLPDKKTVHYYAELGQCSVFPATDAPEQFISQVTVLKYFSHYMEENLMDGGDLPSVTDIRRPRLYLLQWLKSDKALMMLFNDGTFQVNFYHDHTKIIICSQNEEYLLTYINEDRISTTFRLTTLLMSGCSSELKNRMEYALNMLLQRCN

Structure (SMILES) | residual activity [1] | residual activity [2] | residual activity [3] | residual activity [4] | residual activity [5] | residual activity [6] | residual activity [7] | residual activity [8] | residual activity [9] | inhibition [10] | residual activity [11] | residual activity [12] | residual activity [13] | residual activity [14] | residual activity [15] | residual activity [16] | inhibition [17]
CN(C)C(=O)Cn1cc(-c2nc(C3(c4ccc(-c5cnc(N)nc5)cc4)CC3)no2)cn1 [BI 0153] | 84% | 93% | 44% | 100% | 93% | 81% | 84% | 90% | 100% | 22.4% | 95% | 69% | 100% | 92% | 93% | 73% | 3.55%
CN(C)C(=O)Cn1cc(-c2nc([C@@](C)(c3ccc(-c4cnc(N)nc4)cc3)C3CC3)no2)cn1 [BI 665915] | 96% | 56% | 94% | 96% | 80% | 100% | 0% | 100% | 100% | -3.33% | 100% | 86% | 98% | 87% | 76% | 100% | 0.497%
